Values of other authors in publication PMC4447334 (Journal of the American Chemical Society, 2015).

Assays:
PAD4 = PAD4 (Homo sapiens, UniProt Q9UM07); details: approximate, from chart in Figure 6A
PAD1 = target: T1, PAD1 (Homo sapiens, UniProt Q9ULC6); details: approximate, from chart in Figure 6A
T1 sequence (Q9ULC6 1-663): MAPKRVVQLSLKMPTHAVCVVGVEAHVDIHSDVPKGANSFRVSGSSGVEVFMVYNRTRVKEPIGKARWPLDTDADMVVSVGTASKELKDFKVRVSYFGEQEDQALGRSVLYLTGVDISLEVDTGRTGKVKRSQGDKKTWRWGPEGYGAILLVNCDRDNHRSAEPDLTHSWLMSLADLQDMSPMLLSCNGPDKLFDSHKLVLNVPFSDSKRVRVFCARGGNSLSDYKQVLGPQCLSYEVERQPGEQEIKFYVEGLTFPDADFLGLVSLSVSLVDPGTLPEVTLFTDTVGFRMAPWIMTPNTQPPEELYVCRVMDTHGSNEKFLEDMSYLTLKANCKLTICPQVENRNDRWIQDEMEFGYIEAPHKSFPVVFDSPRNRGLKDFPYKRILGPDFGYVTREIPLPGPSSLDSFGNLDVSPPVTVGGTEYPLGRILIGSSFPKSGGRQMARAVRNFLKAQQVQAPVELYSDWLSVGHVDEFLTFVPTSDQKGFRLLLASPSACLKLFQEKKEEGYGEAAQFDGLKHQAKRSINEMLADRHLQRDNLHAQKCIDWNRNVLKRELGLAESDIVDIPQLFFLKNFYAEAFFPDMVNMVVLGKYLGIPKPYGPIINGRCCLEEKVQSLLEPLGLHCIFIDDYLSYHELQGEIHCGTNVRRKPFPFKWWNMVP

PAD3 = target: T2, PAD3 (Homo sapiens, UniProt Q9ULW8); details: exact value reported
T2 sequence (Q9ULW8 1-664): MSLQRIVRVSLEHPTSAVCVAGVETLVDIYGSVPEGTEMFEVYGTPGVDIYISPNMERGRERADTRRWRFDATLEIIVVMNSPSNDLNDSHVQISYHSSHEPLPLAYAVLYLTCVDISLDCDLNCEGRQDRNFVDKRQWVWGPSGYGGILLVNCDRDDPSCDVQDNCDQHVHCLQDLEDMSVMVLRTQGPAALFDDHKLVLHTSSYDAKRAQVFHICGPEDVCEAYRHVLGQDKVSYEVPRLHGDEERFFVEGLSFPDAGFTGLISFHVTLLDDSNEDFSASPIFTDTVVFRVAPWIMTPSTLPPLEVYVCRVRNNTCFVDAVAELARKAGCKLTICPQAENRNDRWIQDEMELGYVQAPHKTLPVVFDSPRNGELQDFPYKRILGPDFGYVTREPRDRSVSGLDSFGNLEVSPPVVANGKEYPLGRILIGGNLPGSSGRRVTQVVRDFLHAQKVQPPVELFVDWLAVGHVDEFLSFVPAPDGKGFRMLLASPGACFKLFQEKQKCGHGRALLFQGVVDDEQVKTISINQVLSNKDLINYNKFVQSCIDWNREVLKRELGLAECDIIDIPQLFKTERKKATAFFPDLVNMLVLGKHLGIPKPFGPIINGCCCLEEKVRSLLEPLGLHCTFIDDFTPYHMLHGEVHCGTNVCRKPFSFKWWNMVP

Sequence of PAD4 (Q9UM07 whole entry): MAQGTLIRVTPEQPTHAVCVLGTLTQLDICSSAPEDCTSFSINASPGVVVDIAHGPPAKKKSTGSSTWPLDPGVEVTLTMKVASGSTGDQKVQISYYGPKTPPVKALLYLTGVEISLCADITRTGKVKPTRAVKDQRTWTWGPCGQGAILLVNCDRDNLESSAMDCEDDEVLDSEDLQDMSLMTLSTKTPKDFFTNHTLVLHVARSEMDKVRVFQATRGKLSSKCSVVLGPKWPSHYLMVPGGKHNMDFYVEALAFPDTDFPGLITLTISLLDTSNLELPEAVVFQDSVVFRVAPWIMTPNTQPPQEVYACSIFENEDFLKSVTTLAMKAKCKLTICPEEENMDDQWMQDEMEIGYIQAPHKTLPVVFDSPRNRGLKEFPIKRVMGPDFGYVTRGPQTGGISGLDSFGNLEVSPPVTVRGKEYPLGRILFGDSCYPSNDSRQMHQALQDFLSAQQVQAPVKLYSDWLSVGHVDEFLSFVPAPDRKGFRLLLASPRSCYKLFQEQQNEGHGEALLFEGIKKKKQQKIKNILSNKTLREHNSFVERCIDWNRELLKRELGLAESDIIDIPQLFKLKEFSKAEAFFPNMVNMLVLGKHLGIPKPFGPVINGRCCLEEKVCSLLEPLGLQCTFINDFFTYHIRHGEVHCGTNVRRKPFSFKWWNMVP

IC50 (PAD4): ~625 µM | IC50 (PAD1): ~250 µM | IC50 (PAD3): 65 µM
Compound: N=C(CF)NCCCC[C@H](NC(=O)c1ccccc1)C(N)=O [F4-amidine]
